Reference: patent EP2796042A1, “Compounds promoting plant growth” (Albert-Ludwigs-Universität Freiburg, priority 2013, dated 2014)

How the values were obtained:
[1] = tested on: Arabidopsis seedlings (Wild type Col 0); test: Safener activity on seedlings grown in presence of inhibitory concentrations of auxin (IAA); assay type: in vivo, Arabidopsis thaliana; settings: for root growth in the presence of inhibitory concentrations of IAA: 100 µM compound, 2 µM IAA
Method: It was tested whether benzoic acid derivatives can counteract the activity of natural auxins (IAA) (Figure 17 and Figure 18). The experiments were carried out as described for Figure 10.

ADCS-RNAi seedlings = test: Rescue of root growth arrest after conditional down regulation of GAT-ADCS (estradiol-inducible RNAi); assay type: in vivo, Arabidopsis thaliana; settings: EST-induced; 50µM compound for 6 days (Fig. 9C)
Lex::UGT75B = test: Rescue of root defects of estradiol-induced Lex::UGT75B plants; assay type: in vivo, Arabidopsis thaliana
Description: Plant growth relies on auxin gradients maintained by series of auxin influx carriers of the AUXIN RESISTANT 1/ Like AUX1 (AUX/LAX) family, efflux facilitators such as ABCB/multi-drug resistance/P-glycoprotein (ABCB/MDR/PGP), and PIN-FORMED (PIN) proteins. PIN-proteins subcellular localization is highly dynamic and influenced by various internal and external signals, thereby directing and redirecting the intercellular fluxes of auxin[25]. […] During plant response to gravity, auxin transport through AtPIN2 plays a crucial role and pin2 mutants are unable to establish lateral auxin gradient after gravistimulation and therefore are agravitropic.

Arabidopsis thaliana [2] = test: Root growth and development of seedlings on AM medium with exogenous compound; assay type: in vivo; settings: for SULF inhibition on plant development: 100µM compound with 100µM sulfanilamide (Fig. 10F), 6 day-old; for plant-root waving: 100µM supplemented media (Fig. 10B)
Method: To get more insights into the pABA role on plant development, plants were grown in presence of pABA. […] Arabidopsis root waving occurs when plants are grown at the surface of an agar plate that is slightly tilted.

Arabidopsis seedlings [3] = test: Root response to gravity after rotating agar plates by 135°; assay type: in vivo, Arabidopsis thaliana; settings: plates rotated to 135° for 3h (Fig. 10G)
Arabidopsis seedlings [4] = test: Activity of benzoic acid derivatives on root growth; assay type: in vivo, Arabidopsis thaliana; settings: AM supplemented with 100 µM compound
[5] = cited from earlier work
Poplar explants = test: Induction of adventitious roots on poplar explants; assay type: in vivo; settings: 200 µM pABA
Description: Since pABA can stimulate adventitious development in Arabidopsis, we tested whether pABA could also promotes adventitious development on poplar, a commercially important tree.

Lycopersicum esculentum = test: Plants growing in agar plates supplemented with pABA; assay type: in vivo; settings: 200 µM pABA in agar plates, vs untreated plants
Description: (§1) They were 3 replicates for each experiment.

Arabidopsis thaliana [6] = test: as above; assay type: in vivo; settings: 200 µM pABA in agar plates, vs untreated plants
Description: as §1

Zea mays = test: Plants growing in soil and watered with a solution containing pABA; assay type: in vivo; settings: watered with 1 mM pABA; n=10
Method: Maize seeds were germinated in Petri® dishes containing deionized-water-humidified Whatman® paper. Germinations of equal size were transferred in pots (one per pot) containing a mixture of soil and vermiculite and watered with tap water for 30 days. Then watering was stopped for 48h until soil looked dried at the surface of the pot.

Arabidopsis thaliana [7] = test: Plants growing in soil and watered or sprayed with a solution of pABA; assay type: in vivo
Method: Arabidopsis plants were grown from seeds in pots in a mixture of soil and vermiculite and watered with tap water for 15 days. Then watering was stopped for 48h until soil looked dried at the surface of the pot. A total of 4 trails containing 51 pots each were divided into 2 parts. […] The other trails were sprayed with solutions described above. […] Plants growing in soil and watered or sprayed with a solution containing pABA

adcs-2 = test: Homozygous adcs2 rescue experiment with pABA; assay type: in vivo, Arabidopsis thaliana; settings: opened siliques transplanted on medium supplemented with pABA
Description: adcs T-DNA mutants (SALK_095283 and SALK_034215) were in Arabidopsis thaliana (L.) Heynh., ecotype Columbia (Col-0) background and ugt75b (AY027263) in Landsberg erecta (Ler).

With `CCN(CC)CCOC(=O)c1ccc(N)cc1` [Procaine, procaine, reference compound] the “root growth in the presence of inhibitory concentrations of IAA” value [1] was “fully restored root growth”.

With `Nc1nc2c(c(=O)[nH]1)N(C=O)C(CNc1ccc(C(=O)N[C@@H](CCC(=O)O)C(=O)O)cc1)CN2` (stereo partly drawn) [5-FTHF, 5-formyl-tetrahydrofolate, reference compound] the “rescue of arrested roots” value (ADCS-RNAi seedlings) was “could be rescued”, the “root growth recovery upon strong UGT75B induction” value (Lex::UGT75B; 20µM EST, 400µM compound (Fig. 14)) was “very poorly” and the “effect of supplementation on growth defects of β-estradiol-induced UGT75B plants” value (Lex::UGT75B; weak induction 0.1µM EST, 200µM 5-FTHF (Fig. 13E)) was “had no effect”. For the same compound, the “SULF inhibition on plant development” value (Arabidopsis thaliana [2]) was “reverted”, the plant-root waving (Arabidopsis thaliana [2]) was “not” and the “phenocopy of the activity of pABA” value (Arabidopsis thaliana [2]; applied at similar concentrations as pABA) was “did not phenocopy the activity of pABA”. The “root growth in the presence of inhibitory concentrations of IAA” value [1] was “fully restored root growth”.

In the case of `Nc1cccc(C(=O)O)c1` [mABA, 3-aminobenzoic acid], the “root growth in the presence of inhibitory concentrations of IAA” value [1] is reported as “fully restored root growth”.

For `Nc1ccc(C(=O)O)cc1` [pABA, 4-aminobenzoic acid], the “rescue of arrested roots” value (ADCS-RNAi seedlings) was “could be rescued”, the “gravitropic response of Arabidopsis primary root” value (Arabidopsis seedlings [3]) was “increases gravitropic response” and the root growth-promoting activity (Arabidopsis seedlings [4]) was “significant root growth-promoting activity”. The pKa value [5] was “about 4.9”, the Adventitious root number (Poplar explants; n=20) was 6.15 and the “Entire plant fresh weight” value (Poplar explants; n=20) was 216 ± 23.69 mg. The Number of leaves (Poplar explants; n=20) was 8.09±0.59, the Roots fresh weight (Poplar explants; n=20) was 68.68 mg and the “Roots fresh weight, percentage in brackets” value (Poplar explants; presumably increase vs control) was 46%. For the same compound, the “more adventitious than control” value (Poplar explants; vs control) was 129%, the adventitious roots (Lycopersicum esculentum; after 10 days) was “more adventitious roots” and the lateral roots (Lycopersicum esculentum; after 10 days) was “more lateral roots”. The root hairs (Lycopersicum esculentum; six days after germination) was “longer root hairs”, the adventitious roots (Arabidopsis thaliana [6]; after 10 days) was “more adventitious roots” and the lateral roots (Arabidopsis thaliana [6]; after 10 days) was “more lateral roots”. For the same compound, the root hairs (Arabidopsis thaliana [6]; six days after germination) was “longer root hairs”, the Number of leaves (Zea mays) was 6.58 ±0.14 and the Root weight (Zea mays) was 7.85 ± 0.49 g. The “greater fresh weight than plant sprayed with only water” value (Arabidopsis thaliana [7]; foliar application of 1 mM pABA) was 17.54%, the “fresh weight of Arabidopsis aerial parts, Sprayed” value (Arabidopsis thaliana [7]; sprayed with 1 mM pABA, n=51) was 0,62 ± 0,02 and the “fresh weight of Arabidopsis aerial parts, Watered” value (Arabidopsis thaliana [7]; watered with 1 mM pABA, n=51) was 1,08 ± 0,03. For the same compound, the “induced fresh weight of Arabidopsis aerial parts on average” value (Arabidopsis thaliana [7]; watering with 1 mM pABA, vs water) was 3.84%, the “SULF inhibition on plant development” value (Arabidopsis thaliana [2]) was “reverted” and the plant-root waving (Arabidopsis thaliana [2]) was “suppressed”. For the same compound, the “development of LR and AR” value (Arabidopsis thaliana [2]; 100µM supplemented media (Fig. 10C)) was “induces development of LR and AR”, the root hair length (Arabidopsis thaliana [2]; pABA treatment (Fig. 10D-E)) was “increases root hair length” and the “Concentrations that inhibited root growth and promoted lateral and adventitious roots development as well as root hair growth” value (Arabidopsis thaliana [2]; wild type seedlings on AM, aerial part not affected) was “greater than 50 µM”. For the same compound, the “development of embryos arrested at the globular stage” value (adcs-2) was “could develop further”, the “growth-inhibitory effects of IAA” value ([1]; 1 µM IAA + 100µM pABA) was “could antagonize” and the “root growth in the presence of inhibitory concentrations of IAA” value [1] was “fully restored root growth”.
